Assay results taken from BindingDB's records for doi:10.1021/jm050855s (Glaxosmithkline, 2006).
pEC50: −log10 of the molar value.

Assay: Inhibition of HCV RNA replication in Huh7 cells

pEC50 | Compound
6.38 | CC(C)CCn1c(=O)c(C2=Nc3ccccc3S(=O)(=O)N2)c(O)c2ccccc21
6.82 | O=c1c(C2=Nc3ccccc3S(=O)(=O)N2)c(O)c2ccccc2n1CCC1CC1 [1-(2-cyclopropylethyl)-3-(1,1-dioxo-1,4-dihydro-1-benzo[1,2,4]-thiadiazin-3-yl)-4-hydroxy-1H-quinolin-2-one]
6.35 | CCCCn1c(=O)c(C2=NS(=O)(=O)c3ccccc3N2)c(O)c2ccccc21 [1-Butyl-3-(1,1-dioxo-1,4-dihydro-1lambda*6*-benzo[1,2,4]thiadiazin-3-yl)-4-hydroxy-1H-quinolin-2-one]
6.62 | O=c1c(C2=Nc3ccccc3S(=O)(=O)N2)c(O)c2ccccc2n1CC1CCC1 [1-cyclobutylmethyl-3-(1,1-dioxo-1,2-dihydrobenzo[1,2,4]thiadiazin-3-yl)-4-hydroxy-1-1H-quinolin-2-one]
6.11 | O=c1c(C2=Nc3ccccc3S(=O)(=O)N2)c(O)c2ccccc2n1-c1ccccc1 [3-(1,1-dioxo-1,2-dihydrobenzo[1,2,4]thiadiazin-3-yl)-4-hydroxy-1-phenyl-1Hquinolin-2-one]
6.74 | Cc1ccc2c(c1)c(O)c(C1=Nc3ccccc3S(=O)(=O)N1)c(=O)n2CCC(C)C [3-(1,1-dioxo-1,2-dihydrobenzo[1,2,4]thiadiazin-3-yl)-4-hydroxy-6-methyl-1-(3-methylbutyl)-1H-quinolin-2-one]
6.42 | CC(C)CCn1c(=O)c(C2=Nc3ccccc3S(=O)(=O)N2)c(O)c2c(F)cccc21 [3-(1,1-dioxo-1,2-dihydrobenzo[1,2,4]thiadiazin-3-yl)-5-fluoro-4-hydroxy-1-(3-methylbutyl)-1H-quinolin-2-one]
6.58 | CC(C)CCn1c(=O)c(C2=Nc3ccccc3S(=O)(=O)N2)c(O)c2cc(F)ccc21 [3-(1,1-dioxo-1,4-dihydro-1lambda*6*-benzo[1,2,4]thiadiazin-3-yl)-6-fluoro-4-hydroxy-1-(3-methyl-butyl)-1H-quinolin-2-one]
6.41 | O=c1c(C2=Nc3ccccc3S(=O)(=O)N2)c(O)c2ccccc2n1Cc1ccoc1 [3-(1,1-dioxo-1,4-dihydrobenzo[1,2,4]thiadiazin-3-yl)-1-furan-3-ylmethyl-4-hydroxy-1H-quinolin-2-one]
6.29 | CC(C)CCn1c(=O)c(C2=Nc3ccccc3S(=O)(=O)N2)c(O)c2cc(OCC(N)=O)ccc21 [4-[3-(1,1-dioxo-1,4-dihydrobenzo[1,2,4]thiadiazin-3-yl)-4-hydroxy-1-(3-methylbutyl)-2-oxo-1,2-dihydroquinolin-6-yloxy]acetamide]
6.53 | CC(C)CCn1c(=O)c(C2=Nc3ccccc3S(=O)(=O)N2)c(O)c2cc(OCC#N)ccc21 [4-[3-(1,1-dioxo-1,4-dihydrobenzo[1,2,4]thiadiazin-3-yl)-4-hydroxy-1-(3-methylbutyl)-2-oxo-1,2-dihydroquinolin-6-yloxy]acetonitrile]
6.80 | Nc1ccc2c(c1)c(O)c(C1=Nc3ccccc3S(=O)(=O)N1)c(=O)n2CCC1CC1 [6-Amino-1-(2-cyclopropylethyl)-3-(1,1-dioxo-1,4-dihydrobenzo[1,2,4]thiadiazin-3-]
6.56 | CC(C)CCn1c(=O)c(C2=Nc3ccccc3S(=O)(=O)N2)c(O)c2cc(N)ccc21 [6-amino-3-(1,1-dioxo-1,2-dihydrobenzo[1,2,4]thiadiazin-3-yl)-4-hydroxy-1-(3-methylbutyl)-1H-quinolin-2-one]
5.92 | CC(C)CCn1c(=O)c(C2=Nc3ccccc3S(=O)(=O)N2)c(O)c2cc(Cl)ccc21 [6-chloro-3-(1,1-dioxo-1,2-dihydrobenzo[1,2,4]thiadiazin-3-yl)-4-hydroxy-1-(3-methylbutyl)-1H-quinolin-2-one]
6.58 | CCOC(=O)CNc1ccc2c(c1)c(O)c(C1=Nc3ccccc3S(=O)(=O)N1)c(=O)n2CCC(C)C [[3-(1,1-dioxo-1,4-dihydrobenzo[1,2,4]thiadiazin-3-yl)-4-hydroxy-1-(3-methylbutyl)-1H-dihydroquinolin-6-ylamino]acetic acid ethyl ester]
5.60 | CC(C)CCn1c(=O)c(C2=Nc3ccccc3S(=O)(=O)N2)c(O)c2cc(NCC(=O)O)ccc21 [[3-(1,1-dioxo-1,4-dihydrobenzo[1,2,4]thiadiazin-3-yl)-4-hydroxy-1-(3-methylbutyl)-1H-dihydroquinolin-6-ylamino]acetic acid]
